Data taken from the NIST ThermoML archive (doi:10.1021/je400102p).
± gives the expanded uncertainty stated by the source.

Assay: relative permittivity at various frequencies (dimensionless)
Settings: Liquid, Frequency=0.001 MHz, Concentric Cylinder Capacitor

Cc1ccccc1 [toluene]
Settings	relative permittivity
303.15 K, 312 kPa	2.37527 ± 0.00084
303.15 K, 1015 kPa	2.37634 ± 0.00084
303.15 K, 5058 kPa	2.38253 ± 0.00084
303.15 K, 10116 kPa	2.38999 ± 0.00084
303.15 K, 20221 kPa	2.40447 ± 0.00084
303.15 K, 30317 kPa	2.41824 ± 0.00086
303.15 K, 40408 kPa	2.43058 ± 0.00086
303.15 K, 50497 kPa	2.44313 ± 0.00086
303.15 K, 60603 kPa	2.45469 ± 0.00088
333.15 K, 402 kPa	2.31204 ± 0.00083
333.15 K, 995 kPa	2.3134 ± 0.00082
333.15 K, 5053 kPa	2.32081 ± 0.00082
333.15 K, 10114 kPa	2.32958 ± 0.00082
333.15 K, 20221 kPa	2.34637 ± 0.00082
333.15 K, 30317 kPa	2.36168 ± 0.00084
333.15 K, 40419 kPa	2.3756 ± 0.00084
333.15 K, 50510 kPa	2.38883 ± 0.00084
333.15 K, 60615 kPa	2.40129 ± 0.00086
363.15 K, 314 kPa	2.24824 ± 0.00081
363.15 K, 1010 kPa	2.2498 ± 0.00081
363.15 K, 5053 kPa	2.25867 ± 0.00081
363.15 K, 10108 kPa	2.26912 ± 0.00081
363.15 K, 10109 kPa	2.26918 ± 0.00081
363.15 K, 10111 kPa	2.26913 ± 0.00081
363.15 K, 20229 kPa	2.28839 ± 0.0008
363.15 K, 20231 kPa	2.28835 ± 0.0008
363.15 K, 20232 kPa	2.28831 ± 0.0008
363.15 K, 30317 kPa	2.30557 ± 0.00082
363.15 K, 30325 kPa	2.30571 ± 0.00082
363.15 K, 40408 kPa	2.32135 ± 0.00082
363.15 K, 50502 kPa	2.33608 ± 0.00084
363.15 K, 50510 kPa	2.33603 ± 0.00084
363.15 K, 60614 kPa	2.3499 ± 0.00084
363.15 K, 60624 kPa	2.34978 ± 0.00084
393.15 K, 1622 kPa	2.18753 ± 0.00077
393.15 K, 5063 kPa	2.19687 ± 0.00079
393.15 K, 5070 kPa	2.19705 ± 0.00079
393.15 K, 10114 kPa	2.20937 ± 0.00079
393.15 K, 10123 kPa	2.20955 ± 0.00079
393.15 K, 20223 kPa	2.23281 ± 0.00079
393.15 K, 20234 kPa	2.23259 ± 0.00079
393.15 K, 30331 kPa	2.2527 ± 0.00081
393.15 K, 40414 kPa	2.27067 ± 0.00081
